Experimental data taken from US20120157396A1, “PYRAZINAMIDE FOR IMMUNOSTIMULATION AND THE TREATMENT OF LEISHMANIASES” (priority 2009, published 2012).
Values joined by “and” are separate entries in the source; they are usually repeats but may differ in a detail not shown here. Equal entries are not always repeated. Where two headings read alike, the source gives them in different places.

What was measured:
[1] = test system: L. donovani
Procedure: To induce visceral leishmaniasis, we inoculated mice (n=8) intravenously with 5×10^6 L. donovani 1S and treated them with PZA (900-150 mg/kg) for 3 wks, 5 days/wk. The lowest dose was equivalent to dose of PZA used in humans (2 g/day). A group of mice treated with vehicle (3.8% DMSO in water) was included as a control. C57BL/6 mice infected with L. donovani typically show detectable parasites in liver and spleens for 8-12 wk. […] We euthanized mice 3 wks after the initiation of the experiment and determined total body weight, liver and spleen weights, and number of parasites in livers.

[2] = PZA-treated children, Zhu et al.; cited from earlier work
[3] = test system: uninfected J774 cells; format: cell-based; conditions: 48 h; for percentage of survival compared to untreated control: mouse
Procedure: The potential cytotoxicity of PZA toward the mammalian cell line was determined by co-incubation of PZA with uninfected J774 cells for 48 h (10^4 cells/well) in 96-well culture plates. […] At 200 μg/ml, the compound started to show signs of toxicity, resulting in mortality of 25% of the cell monolayer. […] The control drug amphotericin B caused 5% mortality of the cell monolayer at the concentration tested (1 μg/ml).
J774 cell viability following incubation with PZA was also determined. Cells were seeded onto 8-well Labtek chambers as above and incubated with different concentrations of PZA (up to 1 mg/ml) for 48 h, stained with Diff-Quick and counted under light microscope. The percentage of viable cells was determined after quantifying the number of cells present per field (in 25 fields, ca. 500 cells). Percentage of survival and MIC50 were calculated as above.

[4] = test system: L. major promastigotes; assay: L. major promastigote drug treatment, parasite survival after 48 h; format: cell-based; conditions: 48 h, promastigote
Procedure: The effect of PZA was first investigated with promastigotes of L. major. PZA was diluted in medium and added to cultures. After 48 h, parasite multiplication was determined by counting parasites in culture. […] Incubation of L. major with 1 μg/ml amphotericin B (as a positive control) caused 100% mortality of promastigotes and 90% of amastigotes.
Mid-log phase (day 3 of culture) L. major promastigotes were employed. Parasite concentration was adjusted to 10^6 promastigotes/ml and seeded into 96-well plates in a volume of 100 μl (final concentration, 10^5 promastigotes/well). PZA was tested in triplicate in a concentration gradient from 1,000-0.5 μg/ml and added to the wells containing the parasite in a volume of 100 μl. A negative control was included with three wells containing only parasites and medium. The positive control consisted of amphotericin B (1 μg/ml). This concentration was previously employed by us because this concentration is equivalent to drug concentrations achieved in human plasma. After 48 h of incubation at 26° C., 10 μL of each well was diluted in 90 μL of the vital colorant (trypan blue in PBS) and the parasites were quantified in a Neubauer chamber. Data was normalized as percentage of survival compared to untreated controls. The Lethal Dose 50 (LD50) was extrapolated from the graph as the concentration of the products that inhibited the parasitic growth at 50% of the values of the negative control.

[5] = mouse models of VL (FIG. 8 legend)

## NC(=O)c1cnccn1 [PZA, pyrazinamide]
[1]; PZA 900-150 mg/kg, 3 wks
  size of livers and spleens: significantly reduced
[1]; PZA at all doses tested (900-150 mg/kg), 3 wks
  liver parasites: significantly decreased
[1]; [5]
  hepatomegaly and splenomegaly: prevented hepatomegaly and splenomegaly
  reduction of liver parasites: 2-4 log 10
[2]
  serum concentration: 41000 ng/mL
[3]; PZA 200 μg/ml
  mortality of the cell monolayer: 25%
[3]; PZA 1 mg/ml
  mortality of the macrophages: 100%
[3]; 1 μg/ml
  percentage of survival compared to untreated control: 100 ± 11%
[3]; 12.5 μg/ml
  percentage of survival compared to untreated control: 100 ± 10%
[3]; 50 μg/ml
  percentage of survival compared to untreated control: 100 ± 12%
[3]; 100 μg/ml
  percentage of survival compared to untreated control: 100 ± 15%
[3]; 200 μg/ml
  percentage of survival compared to untreated control: 85 ± 12%
[3]; 1000 μg/ml
  percentage of survival compared to untreated control: 0%
[4]; Leishmania major
  MIC50: 10 µM and 16.2 µg/mL
[4]; PZA 1 μg/ml
  percentage of survival compared to untreated control: 88 ± 18%
[4]; PZA 12.5 μg/ml
  percentage of survival compared to untreated control: 50 ± 18%
[4]; PZA 50 μg/ml
  percentage of survival compared to untreated control: 38 ± 14%
[4]; PZA 200 μg/ml
  percentage of survival compared to untreated control: 20 ± 10%
[4]; PZA 1000 μg/ml
  percentage of survival compared to untreated control: 10 ± 12%
